Measurements as given in patent publication US8809344B2, “Compounds, compositions, and methods for control of hepatitis C viral infections” (priority 2008, dated 2014).

Key:
[1] = test system: genotype 1b (Con1 strain) replicon with NS4B F1809V mutation; experiment: F1809V mutant reporter replicon IVT RNA in Huh7.5 cells; format: cell-based; settings: Hepatitis C virus
Description: To identify nucleotide changes that confer resistance to 80978, replicon RNA was reverse transcribed and amplified from total RNA extracted from 80978-resistant and control Clone A cells. […] One silent mutation at amino acid 1771 was also observed. Each mutation was introduced independently into a stable genotype 1b (Con1 strain) subgenomic reporter replicon plasmid via site-directed mutagenesis. […] The sequence of the wild type NS4B encoding sequence is provided as SEQ ID NO:1, the sequence of the mutated NS4B nucleotide sequence encoding the F1809V mutation is provided as SEQ ID NO:3, and the sequence of the mutated NS4B nucleotide sequence encoding the F1809L mutation is provided as SEQ ID NO:5. The sequence of the wild type NS4B protein is provided as SEQ ID NO:2, the sequence of the mutated NS4B protein with the F1809V mutation is provided as SEQ ID NO:4, and the sequence of the mutated NS4B nucleotide sequence encoding the F1809L mutation is provided as SEQ ID NO:6. […] A differential response was observed between cells electroporated with different replicon RNAs.

[2] = test system: chimeric APV112 HCV (genotype 2a with genotype 1b NS4B amino acids 53 to 218); experiment: HCV APV112 viral infectivity assay in Huh7.5 cells, 3′NTR RNA by realtime quantitative PCR; format: cell-based, hepatitis C virus; settings: for Log change in 3′NTR copies relative to 1.0% DMSO (GAPDH normalized): 48 hours; for chimeric APV112 viral infectivity: sensitive genotype 1b NS4B region
Description: (§1) Inhibition of HCV infectivity by AP0080978 and its analogs (AP0080977, non-active enantiomer; AP0089652, racemate; and AP0080935, an aromatic, non-optically active analog of AP0080978) was assayed by exposing cells with infectious chimeric HCV virions in the presence of the compounds. This was accomplished by use of an HCV cell culture system essentially as described in Pietschmann, T. et al. (2006) 103(19): 7408-13, Proc. Natl. Acad. Sci. USA; and elsewhere. Two viral constructs were utilized to characterize inhibition of viral infectivity (FIG. 4). Construct APV23 (FL-J6/JFH) is a full-length, chimeric, genotype 2a HCV genome containing the HCV core through the NS2 first transmembrane domain coding region from the J6 HCV isolate linked to the second NS2 transmembrane domain NS3 through NS5B coding region of HCV strain JFH-1, as shown in FIG. 4 (i.e. an HCV chimera with the “C3 Junction” described in Pietschmann, T. et al. (2006) Proc. Natl. Acad. Sci. USA 103(19): 7408-13; see page 7409 and FIG. 2A of Pietschmann, T. et al.). Construct APV112 was generated by replacing nucleotides encoding amino acids 53 to 218 of the NS4B gene of the APV23 sequence with a corresponding sequence from a genotype 1b (Con1 strain).
(§2) Huh7.5 cells were plated at a density of 20,000 cells per well in 96-well plates. The cells were exposed to the chimeric HCV virions at a multiplicity of infection of 0.01. Potential inhibitory compounds were added simultaneously with the chimeric virus. Cells were incubated for 48 hours and then the levels of HCV 3′NTR and GAPDH RNA were quantified by realtime quantitative PCR. Data were analyzed by the comparative Ct method with delta-delta Ct determined relative to 1.0% DMSO. Results in FIGS. 5 and 6 are depicted as log change in 3′NTR copies relative to 1.0% DMSO.

[3] = test system: chimeric APV23 (FL-J6/JFH) genotype 2a HCV; experiment: HCV APV23 viral infectivity assay in Huh7.5 cells, 3′NTR RNA by realtime quantitative PCR; format: cell-based, hepatitis C virus; settings: FIG. 6, genotype 2a NS4B coding region
Description: as §1, §2

[4] = test system: stable genotype 1b (Con1 strain) subgenomic replicon; experiment: Log10 decrease in HCV replicon RNA in Clone VI cells, quantitative RT-PCR relative to GAPDH; format: cell-based, hepatitis C virus; settings: 20 μM compound, 72 hours
Description: To quantify the effect of compound on HCV RNA replicon levels by measuring HCV replicon RNA levels, the Clone VI cell line, a human hepatoma cell line that contains a stable genotype 1b (Con1 strain) subgenomic replicon with the adaptive Ser1179Ile mutation was used (U.S. Pat. No. 7,049,428). Cells were seeded into 12-well plates (40,000 cells per well) in the absence of Geneticin™ (Invitrogen, Carlsbad, Calif., USA) and treated in triplicate four hours later with 20 μM compound, with a final DMSO percentage of 1% in a total volume of 1 ml. Total RNA was extracted 72 hours later, and HCV and GAPDH RNA levels were quantified via quantitative RT-PCR. The log 10 decrease in HCV RNA levels was quantified relative to GAPDH RNA levels using the comparative Ct (threshold cycle) method (Applied Biosystems, Foster City, Calif., USA).
Additional compounds of formula (I) shown in FIG. 1 were also shown to inhibit HCV RNA replication. The effects of various compounds of formula (I) on HCV RNA replicon levels were determined by measuring HCV replicon RNA levels in cells treated with various concentrations of the compounds. […] Total RNA was extracted 72 hours later, and HCV and GAPDH RNA levels were quantified via quantitative RT-PCR. […]

Question: For `O=C(NCc1cccs1)c1nn2c(c1Cl)N[C@H](c1ccco1)C[C@@H]2C(F)(F)F` (single isomer, unassigned) [Compound 80978], which EC50 [1] is on record?
Answer: The EC50 was > 22.5 µM.

Question: What about the “potency in viral infectivity assays relative to HCV replicon assays” value [2] of the same molecule?
Answer: Its value is “significantly more potent”.

Question: And the “greater log change relative to the log change of the 89652 racemate” value ([2]; 0.02 μM, APV112)?
Answer: Its value is 5.3 fold.

Question: What about the “Log change in 3′NTR copies relative to 1.0% DMSO (GAPDH normalized)” value ([2]; 0.02 μM, APV112) of the same molecule?
Answer: The value was −0.79.

Question: What about the “Log change in 3′NTR copies relative to 1.0% DMSO (GAPDH normalized)” value ([2]; 0.07 μM, APV112) of the same molecule?
Answer: The value was −1.29.

Question: And the “Log change in 3′NTR copies relative to 1.0% DMSO (GAPDH normalized)” value ([2]; 0.22 μM, APV112)?
Answer: Its value is −1.52.

Question: What about the “Log change in 3′NTR copies relative to 1.0% DMSO (GAPDH normalized)” value ([2]; 0.67 μM, APV112) of the same molecule?
Answer: Its value is −1.67.

Question: What about the “Log change in 3′NTR copies relative to 1.0% DMSO (GAPDH normalized)” value ([2]; 2 μM, APV112) of the same molecule?
Answer: The value was −1.49.

Question: What about the “potency relative to control HCV inhibitors 2′CMeA, VX-950, cyclosporin A and a-CD81 antibody (JS81)” value ([2]; FIG. 5, APV112) of the same molecule?
Answer: Its value is “significantly more potent”.

Question: And the “chimeric APV112 viral infectivity” value ([2]; FIG. 5, listed as AP 80978)?
Answer: Its value is “able to inhibit”.

Question: What about the “chimeric APV112 viral infectivity” value ([2]; FIG. 5, listed as AP0080978) of the same molecule?
Answer: The value was “reduced”.

Question: What about the “chimeric APV23 viral infectivity” value ([3]; listed as AP 80978) of the same molecule?
Answer: The value was “resistant”.

Question: What about the “chimeric APV23 viral infectivity” value ([3]; listed as AP0080978) of the same molecule?
Answer: The value was “unaffected”.

Question: And the “Log RNA decrease at [μM]” value [4]?
Answer: The value was 1.16 @ 20 μM.
